{
  "source": "patent US9011853B2",
  "about": "“B7-H4 fusion proteins and methods of use thereof” (Amplimmune, Inc., priority 2009, dated 2015)",
  "system": "serum levels of 58 analytes",
  "test": "Serum biomarker analysis, quantitative immunoassay multi-analyte profiling (Rules-Based Medicine RodentMAP v2.9), AA#80",
  "format": "in vivo, mouse",
  "method": "In AA#80, serum samples were collected on Day 27, Day 34, Day 41 and Day 55 via the submandibular vein. Approximately 200 μL of blood per mouse was collected in Microtainer® serum separator tubes. Serum was removed following centrifugation and stored at <−65° C. until analysis.\nSelected serum samples were sent to Rules-Based Medicine (Austin, Tex.) for quantitative immunoassay multi-analyte profiling of serum samples, with the goal of identifying biomarkers that could be used to monitor disease progression and response to B7-H4-Ig treatment. Day 27, Day 34, and Day 41 sera from the three representative mice in the B7-H4-Ig group (tag #3332, 3334, and 3338) and three representative mice in the Synagis® group (tag #3324, 3329, and 3330) were analyzed for levels of 58 analytes using the RodentMAP v2.9 Testing Service.\nData from the Rules-Based Medicine analysis was analyzed using Microsoft Excel and GraphPad Prism software. T-tests were performed to compare the levels of each analyte in the B7-H4-Ig versus Synagis® treated samples. No correction was made for multiple comparisons. Additionally, correlation coefficients were calculated for each analyte versus disease score.",
  "note": "Several values for one entry are separate records, joined by “and”; a condition that tells them apart may be missing. Identical values can stand only once.",
  "data": [
    {"substance": "Synagis®: humanized monoclonal IgG antibody against the F protein of Respiratory Syncytial Virus; used as a human IgG1 isotype control [reference compound]", "values": [
      {"measurement": "serum samples with undetectable GST-α levels", "setting": "all samples (Day 27, 34, 41)", "value": "7/9"},
      {"measurement": "serum samples with TNF-α levels above the limit of detection", "setting": "all samples (Day 27, 34, 41) (FIG. 16)", "value": "5/9"},
      {"measurement": "M-CSF (Macrophage-Colony Stimulating Factor)", "setting": "serum, Day 34, LDD 0.01795, listed as Human LgG1 Control", "value": "6.46 ng/mL and 6.3 ng/mL and 6.09 ng/mL"},
      {"measurement": "MIP-1gamma (Macrophage Inflammatory Protein-1gamma)", "setting": "serum, Day 34, LDD 0.0736, listed as Human LgG1 Control", "value": "42.2 ng/mL and 41 ng/mL and 40.9 ng/mL"},
      {"measurement": "TEMP-1 (Tissue Inhibitor of Metalicproteinase Type-1)", "setting": "serum, Day 34, LDD 0.18, listed as Human LgG1 Control", "value": "1.7 ng/mL and 1.88 ng/mL and 1.31 ng/mL"},
      {"measurement": "IL-5 (Interleukin-5)", "setting": "serum, Day 34, LDD 0.194, listed as Human LgG1 Control", "value": "0.333 ng/mL and 0.474 ng/mL"},
      {"measurement": "MIP-1alpha (Macrophage Inflammatory Protein-1alpha)", "setting": "serum, Day 34, LDD 0.2255, listed as Human LgG1 Control", "value": "3.13 ng/mL and 2.88 ng/mL and 2.93 ng/mL"},
      {"measurement": "MIP-3beta (Macrophage Inflammatory Protein-3beta)", "setting": "serum, Day 34, LDD 0.465, listed as Human LgG1 Control", "value": "2.63 ng/mL and 2.52 ng/mL and 2.67 ng/mL"},
      {"measurement": "Tissue Factor", "setting": "serum, Day 34, LDD 0.5175, listed as Human LgG1 Control", "value": "10.8 ng/mL and 10 ng/mL and 12.5 ng/mL"},
      {"measurement": "MPO (Myeloperoxidase)", "setting": "serum, Day 34, LDD 0.95, listed as Human LgG1 Control", "value": "253 ng/mL and 254 ng/mL"},
      {"measurement": "SGOT (Serum Glutamic-Oxaloacetic Transaminase)", "setting": "serum, Day 34, LDD 1.86, listed as Human LgG1 Control", "value": "75 µg/mL and 140 µg/mL and 81.9 µg/mL"},
      {"measurement": "TPO (Thromboproletin)", "setting": "serum, Day 34, LDD 2.66, listed as Human LgG1 Control", "value": "36.1 ng/mL and 34.2 ng/mL and 39.8 ng/mL"},
      {"measurement": "SAP (Setrum Amtyloid P)", "setting": "serum, Day 34, LDD 5.4, listed as Human LgG1 Control", "value": "38.4 µg/mL and 48.6 µg/mL and 38.3 µg/mL"},
      {"measurement": "MIP-2 (Macrophage Inflammatory Protein-2)", "setting": "serum, Day 34, LDD 7.174, listed as Human LgG1 Control", "value": "27.2 pg/mL and 32.3 pg/mL and 33.6 pg/mL"},
      {"measurement": "MMP-9 (Matrix Metalloproteinase-9)", "setting": "serum, Day 34, LDD 10, listed as Human LgG1 Control", "value": "207 ng/mL and 259 ng/mL and 283 ng/mL"},
      {"measurement": "MCP-1 (Monocyte Chemoattractant Protein-1)", "setting": "serum, Day 34, LDD 16.924, listed as Human LgG1 Control", "value": "99.8 pg/mL and 78.3 pg/mL and 117 pg/mL"},
      {"measurement": "VCAM-1 (Vescular Cell Adhesion Molecule-1)", "setting": "serum, Day 34, LDD 19, listed as Human LgG1 Control", "value": "2290 ng/mL and 2120 ng/mL and 2450 ng/mL"},
      {"measurement": "MDC (Macrophage-Derived Chemokine)", "setting": "serum, Day 34, LDD 21.85, listed as Human LgG1 Control", "value": "1270 pg/mL and 1320 pg/mL and 1130 pg/mL"},
      {"measurement": "Myoglobin", "setting": "serum, Day 34, LDD 24, listed as Human LgG1 Control", "value": "10 ng/mL and 9.69 ng/mL and 12.7 ng/mL"},
      {"measurement": "MCP-3 (Monocyte Chemoattractant Protein-3)", "setting": "serum, Day 34, LDD 31.36, listed as Human LgG1 Control", "value": "188 pg/mL and 180 pg/mL and 193 pg/mL"},
      {"measurement": "VEGF (Vescular Endotheial Cell Growth Factor)", "setting": "serum, Day 34, LDD 38.2, listed as Human LgG1 Control", "value": "92.6 pg/mL and 128 pg/mL and 114 pg/mL"},
      {"measurement": "IP-10 (Inducible Protein-10)", "setting": "serum, Day 34, LDD 40.28, listed as Human LgG1 Control", "value": "68.1 pg/mL and 52 pg/mL and 84.3 pg/mL"},
      {"measurement": "LIF (Leukemia Infabitory Factor)", "setting": "serum, Day 34, LDD 43.6, listed as Human LgG1 Control", "value": "1620 pg/mL and 1430 pg/mL"},
      {"measurement": "MCP-5 (Monocyte Chemoattractant Protein-5)", "setting": "serum, Day 34, LDD 46.38, listed as Human LgG1 Control", "value": "37.5 pg/mL and 46.2 pg/mL and 41 pg/mL"},
      {"measurement": "SCF (Stem Cell Factor)", "setting": "serum, Day 34, LDD 75.17, listed as Human LgG1 Control", "value": "214 pg/mL and 182 pg/mL"},
      {"measurement": "Lymphotactin", "setting": "serum, Day 34, LDD 85.48, listed as Human LgG1 Control", "value": "219 pg/mL and 151 pg/mL and 205 pg/mL"},
      {"measurement": "VWF (Von Willebrand Factor)", "setting": "serum, Day 34, LDD 98.6, listed as Human LgG1 Control", "value": "107 ng/mL and 92.4 ng/mL and 139 ng/mL"},
      {"measurement": "M-CSF (Macrophage-Colony Stimulating Factor)", "setting": "serum, Day 41, LDD 0.01795, listed as Human LgG1 Control", "value": "6.38 ng/mL and 5.22 ng/mL and 6.37 ng/mL"},
      {"measurement": "MIP-1gamma (Macrophage Inflammatory Protein-1gamma)", "setting": "serum, Day 41, LDD 0.0736, listed as Human LgG1 Control", "value": "45.4 ng/mL and 44.8 ng/mL"},
      {"measurement": "TEMP-1 (Tissue Inhibitor of Metalicproteinase Type-1)", "setting": "serum, Day 41, LDD 0.18, listed as Human LgG1 Control", "value": "3.54 ng/mL and 3.21 ng/mL and 4.33 ng/mL"},
      {"measurement": "IL-5 (Interleukin-5)", "setting": "serum, Day 41, LDD 0.194, listed as Human LgG1 Control", "value": "0.616 ng/mL and 0.368 ng/mL and 0.333 ng/mL"},
      {"measurement": "MIP-1alpha (Macrophage Inflammatory Protein-1alpha)", "setting": "serum, Day 41, LDD 0.2255, listed as Human LgG1 Control", "value": "3.03 ng/mL and 3.13 ng/mL and 3.32 ng/mL"},
      {"measurement": "MIP-3beta (Macrophage Inflammatory Protein-3beta)", "setting": "serum, Day 41, LDD 0.465, listed as Human LgG1 Control", "value": "3.27 ng/mL and 2.73 ng/mL and 2.35 ng/mL"},
      {"measurement": "Tissue Factor", "setting": "serum, Day 41, LDD 0.5175, listed as Human LgG1 Control", "value": "10.8 ng/mL and 9.17 ng/mL and 11.7 ng/mL"},
      {"measurement": "MPO (Myeloperoxidase)", "setting": "serum, Day 41, LDD 0.95, listed as Human LgG1 Control", "value": "259 ng/mL and 263 ng/mL and 240 ng/mL"},
      {"measurement": "SGOT (Serum Glutamic-Oxaloacetic Transaminase)", "setting": "serum, Day 41, LDD 1.86, listed as Human LgG1 Control", "value": "84 µg/mL and 93.9 µg/mL and 78.4 µg/mL"},
      {"measurement": "TPO (Thromboproletin)", "setting": "serum, Day 41, LDD 2.66, listed as Human LgG1 Control", "value": "38 ng/mL and 39.8 ng/mL and 32.4 ng/mL"},
      {"measurement": "SAP (Setrum Amtyloid P)", "setting": "serum, Day 41, LDD 5.4, listed as Human LgG1 Control", "value": "49.2 µg/mL and 46.2 µg/mL and 48.8 µg/mL"},
      {"measurement": "MIP-2 (Macrophage Inflammatory Protein-2)", "setting": "serum, Day 41, LDD 7.174, listed as Human LgG1 Control", "value": "33.6 pg/mL and 50.3 pg/mL"},
      {"measurement": "IL-6 (Interleukin-6)", "setting": "serum, Day 41, LDD 13.852, listed as Human LgG1 Control", "value": "74.2 pg/mL and 67.5 pg/mL and 93.7 pg/mL"},
      {"measurement": "MCP-1 (Monocyte Chemoattractant Protein-1)", "setting": "serum, Day 41, LDD 16.924, listed as Human LgG1 Control", "value": "90.2 pg/mL and 129 pg/mL and 105 pg/mL"},
      {"measurement": "VCAM-1 (Vescular Cell Adhesion Molecule-1)", "setting": "serum, Day 41, LDD 19, listed as Human LgG1 Control", "value": "2130 ng/mL and 1890 ng/mL and 1900 ng/mL"}
    ]}
  ]
}
